In US6262293A, “ω-Cycloalkly-prostaglandin e2 derivatives” (Ono Pharmaceutical Co., Ltd., priority 1997, dated 2001):

Assays:
Details in all cases: CHO cell membrane fraction; 2.5 nM 3H-PGE2; pH 6.0; room temperature, 1 hour; more polar stereoisomer
mouse EP3α = target: T1, mouse EP3α (Mus musculus, UniProt P30557); assay: Binding assay using expression cell of prostanoids receptor subtype (competition of specific 3H-PGE2 binding), EP3α
T1 construct: expressed in transfected cells; host or cells: CHO cells (membrane fraction)
T1 sequence (P30557 1-365): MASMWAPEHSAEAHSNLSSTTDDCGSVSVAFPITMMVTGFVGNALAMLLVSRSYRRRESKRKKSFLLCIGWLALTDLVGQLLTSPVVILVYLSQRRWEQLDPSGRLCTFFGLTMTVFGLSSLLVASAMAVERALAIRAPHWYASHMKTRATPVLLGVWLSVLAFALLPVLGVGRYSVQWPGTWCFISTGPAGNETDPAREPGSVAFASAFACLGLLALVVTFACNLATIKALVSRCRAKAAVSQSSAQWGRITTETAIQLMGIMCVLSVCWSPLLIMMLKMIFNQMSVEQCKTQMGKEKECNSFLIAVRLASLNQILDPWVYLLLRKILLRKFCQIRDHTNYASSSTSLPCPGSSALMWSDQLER
Method: (§1) (i) Binding Assay Using Expression Cell of Prostanoids Receptor Subtype
(§2) The preparation of membrane fraction was carried out according to the method of Sugimoto et. al., [J. Biol. Chem., 267, 6463-6466 (1992)], using expression CHO cell of the prostanoids receptor subtype (mouse EP1, EP2, EP3α, EP4).
(§3) The standard assay mixture containing membrane fraction (0.5 mg/ml) and [^3 H]-PGE2 ([…]) in a final volume of 200 μl was incubated at room temperature for 1 hour. The reaction was terminated by addition of ice-cooled buffer (3 ml). The mixture was filtered through a GF/B glass filter under reduced pressure. The radioactivity associated with the filter was measured by liquid scintillation counter.
(§4) Kd and Bmax values were determined from Scatchard plots [Ann. N. Y. Acad. Sci., 51, 660 (1949)]. Non-specific binding was calculated as the binding in the presence of an excess (2.5 μM) of unlabeled PGE2. In the experiment for competition of specific ^3 H-PGE2 binding by the compounds of the present invention, 2.5 nM of ^3 H-PGE2 and various concentrations of compounds of the present invention were added. The following buffer was used in all reactions.
(§5) Buffer: 10 mM potassium phosphate (pH 6.0), 1 mM EDTA, 10 mM MgCl2, 0.1 M NaCl.
(§6) All the values shown are those obtained using the more polar stereoisomer of the exemplified compounds. The dissociation constant; i.e. Ki (μM) of each compound was calculated by the following equation.

mouse EP2 = target: T2, mouse EP2 (Mus musculus, UniProt Q62053); assay: Binding assay using expression cell of prostanoids receptor subtype (competition of specific 3H-PGE2 binding), EP2
T2 construct: expressed in transfected cells; host or cells: CHO cells (membrane fraction)
Method: as §1, §2, §3, §4, §5, §6

mouse EP1 = target: T3, mouse EP1 (Mus musculus, UniProt P35375); assay: Binding assay using expression cell of prostanoids receptor subtype (competition of specific 3H-PGE2 binding), EP1
T3 construct: expressed in transfected cells; host or cells: CHO cells (membrane fraction)
T3 sequence (P35375 1-405): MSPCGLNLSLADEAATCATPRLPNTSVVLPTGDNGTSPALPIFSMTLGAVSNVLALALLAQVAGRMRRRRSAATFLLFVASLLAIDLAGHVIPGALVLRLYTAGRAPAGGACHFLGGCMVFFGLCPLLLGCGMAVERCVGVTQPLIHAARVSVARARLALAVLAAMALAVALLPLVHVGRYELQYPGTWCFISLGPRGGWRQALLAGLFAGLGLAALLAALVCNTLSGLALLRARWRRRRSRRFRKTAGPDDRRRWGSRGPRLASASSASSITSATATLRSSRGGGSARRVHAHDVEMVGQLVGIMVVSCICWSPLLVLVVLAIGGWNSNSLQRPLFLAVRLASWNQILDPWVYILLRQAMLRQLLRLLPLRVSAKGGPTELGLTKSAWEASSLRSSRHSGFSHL
Method: as §1, §2, §3, §4, §5, §6

mouse EP4 = target: T4, mouse EP4 (Mus musculus, UniProt P32240); assay: Binding assay using expression cell of prostanoids receptor subtype (competition of specific 3H-PGE2 binding), EP4
T4 construct: expressed in transfected cells; host or cells: CHO cells (membrane fraction)
Method: as §1, §2, §3, §4, §5, §6

T4 sequence (P32240 whole entry): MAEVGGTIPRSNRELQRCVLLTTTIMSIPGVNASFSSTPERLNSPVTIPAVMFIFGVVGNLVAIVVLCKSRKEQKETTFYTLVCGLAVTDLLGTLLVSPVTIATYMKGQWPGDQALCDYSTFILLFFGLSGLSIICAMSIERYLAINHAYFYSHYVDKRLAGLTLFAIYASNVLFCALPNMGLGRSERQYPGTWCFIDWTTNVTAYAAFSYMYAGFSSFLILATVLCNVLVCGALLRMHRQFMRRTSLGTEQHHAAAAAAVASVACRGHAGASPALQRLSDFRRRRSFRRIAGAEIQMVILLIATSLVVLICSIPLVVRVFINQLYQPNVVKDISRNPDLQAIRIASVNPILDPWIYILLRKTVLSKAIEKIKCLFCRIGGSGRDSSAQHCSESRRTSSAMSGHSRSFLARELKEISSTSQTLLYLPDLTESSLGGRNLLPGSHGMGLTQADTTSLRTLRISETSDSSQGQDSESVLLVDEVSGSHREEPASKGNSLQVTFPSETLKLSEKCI
T2 sequence (Q62053 whole entry): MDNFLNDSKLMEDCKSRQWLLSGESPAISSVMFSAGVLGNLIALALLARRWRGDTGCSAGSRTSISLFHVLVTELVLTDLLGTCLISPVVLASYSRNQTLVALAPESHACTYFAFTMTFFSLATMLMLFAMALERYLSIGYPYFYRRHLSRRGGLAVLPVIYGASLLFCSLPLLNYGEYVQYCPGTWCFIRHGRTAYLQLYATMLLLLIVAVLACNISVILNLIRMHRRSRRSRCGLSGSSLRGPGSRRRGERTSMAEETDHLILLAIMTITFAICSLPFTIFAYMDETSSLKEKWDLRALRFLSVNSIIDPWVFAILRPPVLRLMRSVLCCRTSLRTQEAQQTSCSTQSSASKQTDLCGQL

Row | Ki (mouse EP3α) [µM] | Ki (mouse EP2) [nM] | Ki (mouse EP1) [µM] | Ki (mouse EP4) [nM] | SMILES
1 | > 10 | 5.1 | > 10 | > 10000 | C=CCC1(C(O)C/C=C/[C@@H]2[C@@H](CCc3ccc(C(=O)O)cc3)[C@H](Cl)C[C@H]2O)CCC1 (stereo partly drawn) [9(c), (9β,11α,13E) -9-Chloro-11,16-dihydroxy-17,17-propano-1,6-(p-phenylene)-2,3,4,5-tetranorprost-13,19-dienoic acid]
2 | > 10 | 2 | > 10 | 310 | O=C(O)c1ccc(CSC2C(=O)C[C@@H](O)[C@@H]2/C=C/CC(O)C2(CC3CC3)CCC2)cc1 (stereo partly drawn) [Example 5(d), (11α,13E) -9-Oxo-11,16-dihydroxy-17,17-propano-19,20-methano-7-thia-1,6-(p-phenylene)-2,3,4,5-tetranorprost-13-enoic Acid]
3 | > 10 | 6.1 | > 10 | > 10000 | O=C(O)c1ccc(CC[C@H]2C(=O)C[C@@H](O)[C@@H]2/C=C/CC(O)C2(CC3CC3)CCC2)cc1 (single isomer, unassigned) [Example 2(b), (11α,13E)-9-Oxo-11,16-dihydroxy-17,17-propano-19,20-methano-1,6-(p-phenylene)-2,3,4,5-tetranorprost-13-enoic Acid]
4 | > 10 | 19 | > 10 | 1500 | C=CCC1(C(O)C/C=C/[C@@H]2C(SCc3ccc(C(=O)O)cc3)C(=O)C[C@H]2O)CCC1 (stereo partly drawn) [Example 5(b), (11α,13E)-9-Oxo-11,16-dihydroxy-17,17-propano-7-thia-1,6-(p-phenylene)-2,3,4,5-tetranorprost-13,19-dienoic Acid]
5 | > 10 | 9.7 | > 10 | > 10000 | C=CCC1(C(O)C/C=C/[C@H]2[C@H](O)CC(=O)[C@@H]2CCc2ccc(C(=O)O)cc2)CCC1 (single isomer, unassigned) [Example 2(a), (11α,13E)-9-Oxo-11,16-dihydroxy-17,17-propano-1,6-(p-phenylene)-2,3,4,5-tetranorprost-13,19-dienoic Acid]
